Consider 31 compounds from patent US9376418B2, “Substituted pyridine spleen tyrosine kinase (SYK) inhibitors” (Merck Sharp & Dohme Corp., priority 2012, dated 2016).

Some results are limits rather than exact numbers.

In this assay the target is T1, recombinant human GST-SYK (Homo sapiens, UniProt P43405).
T1 construct: purchased Carna Biosciences 08-176
Kind of assay: Homogeneous Time-Resolved Fluorescence (HTRF) assay for the recombinant human Syk enzyme. Type of assay: biochemical. The settings on record: HTRF assay, recombinant human GST-SYK; IC50 given as class symbols; read-out: rhSYK Activity. The procedure, abridged:
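GST-hSYK ([…]) was preincubated with inhibitor (0.1% DMSO) for 10 min at room temperature in Tris-HCl pH 7.5 with tween 20 and DTT. Biotinylated peptide (250 nM), Mg (5 mM) and ATP (25 μM) were added for 45 min. The reaction was quenched with EDTA, and phosphotyrosine was read by Eu-antibody/SA-APC HTRF after 30 min.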
Background: Time-resolved FRET reads energy transfer from a long-lived donor to a nearby acceptor.
As to `Cc1cc(Nc2nccc(C3CC3)n2)cc(-c2ccc(C(C)(O)[C@H]3CC[C@H](C(=O)O)CC3)nc2)c1` (stereo partly drawn) [Example 9.24, trans-4-[1-(5-{3-[(4-cyclopropylpyrimidin-2-yl)amino]-5-methylphenyl}pyridin-2-yl)-1-hydroxyethyl]cyclohexanecarboxylic acid], the IC50 was below 100 nM.

On to `COc1ccnc(Nc2cc(C)cc(-c3ccc(C(C)(O)[C@H]4CC[C@H](C(=O)O)CC4)nc3)c2)n1` (stereo partly drawn) [Example 9.25, trans-4-[1-hydroxy-1-(5-{3-[(4-methoxypyrimidin-2-yl)amino]-5-methylphenyl}pyridin-2-yl)ethyl]cyclohexanecarboxylic acid], for which the IC50 was below 100 nM.

For `Cc1cc(Nc2nccc(C(F)(F)F)n2)cc(-c2ccc(C3(O)COC(C)(C)OC3)nc2)c1` [Example 9.32, 2,2-dimethyl-5-[5-(3-methyl-5-{[4-(trifluoromethyl)pyrimidin-2-yl]amino}phenyl)pyridin-2-yl]-1,3-dioxan-5-ol], the IC50 is 100 to 1000 nM.

As for `Cc1cc(Nc2nccc(C(F)(F)F)n2)cc(-c2ccc(C(O)(CO)CO)nc2)c1` [Example 9.33, 2-[5-(3-methyl-5-{[4-(trifluoromethyl)pyrimidin-2-yl]amino}phenyl)pyridin-2-yl]propane-1,2,3-triol], the IC50 is below 100 nM.

Consider `Cc1cc(Nc2nccc(C(F)(F)F)n2)cc(-c2ccc([C@]3(O)CC[C@@H](C(=O)O)CC3)nc2)c1` [Example 9.34, cis-4-hydroxy-4-[5-(3-methyl-5-{[4-(trifluoromethyl)pyrimidin-2-yl]amino}phenyl)pyridin-2-yl]cyclohexanecarboxylic acid], for which the IC50 is below 100 nM.

Take `Cc1cc(Nc2nccc(C(F)(F)F)n2)cc(-c2ccc([C@]3(O)CC[C@H](C(=O)O)CC3)nc2)c1` [Example 9.35, trans 4-hydroxy-4-[5-(3-methyl-5-{[4-(trifluoromethyl)pyrimidin-2-yl]amino}phenyl)pyridin-2-yl]cyclohexanecarboxylic acid]: the IC50 was below 100 nM.

Consider `COc1ccnc(Nc2cc(C)cc(-c3ccc([C@]4(O)CC[C@H](C(=O)O)CC4)nc3)c2)n1` [Example 9.36, trans-4-hydroxy-4-(5-{3-[(4-methoxypyrimidin-2-yl)amino]-5-methylphenyl}pyridin-2-yl)cyclohexanecarboxylic acid], for which the IC50 was below 100 nM.

As for `Cc1cc(Nc2nccc(C)n2)cc(-c2ccc([C@]3(O)CC[C@@H](C(=O)O)CC3)nc2)c1` [Example 9.37, cis-4-hydroxy-4-(5-{3-methyl-5-[(4-methylpyrimidin-2-yl)amino]phenyl}pyridin-2-yl)cyclohexanecarboxylic acid], the IC50 was below 100 nM.

With `Cc1cc(Nc2nccc(C)n2)cc(-c2ccc([C@]3(O)CC[C@H](C(=O)O)CC3)nc2)c1` [Example 9.38, trans-4-hydroxy-4-(5-{3-methyl-5-[(4-methylpyrimidin-2-yl)amino]phenyl}pyridin-2-yl)cyclohexanecarboxylic acid], the IC50 was below 100 nM.

Turning to `Cc1cc(Nc2nccc(C)n2)cc(-c2ccc(C3(O)CCC(C(=O)O)C(C)(C)C3)nc2)c1` (stereo not shown) [Example 9.39, 4-hydroxy-2,2-dimethyl-4-(5-{3-methyl-5-[(4-methylpyrimidin-2-yl)amino]phenyl}pyridin-2-yl)cyclohexanecarboxylic acid], the IC50 was below 100 nM.

With `CCOC(=O)C1CCC(O)(c2ccc(-c3cc(C)cc(Nc4nccc(C)n4)c3)cn2)CC1(C)C` (stereo not shown) [Example 9.40, ethyl 4-hydroxy-2,2-dimethyl-4-(5-{3-methyl-5-[(4-methylpyrimidin-2-yl)amino]phenyl}pyridin-2-yl)cyclohexanecarboxylate], the IC50 lay in the range of 100 to 1000 nM.

As for `COC(=O)C1CCC(O)(c2ccc(-c3cc(C)cc(Nc4nccc(C(F)(F)F)n4)c3)cn2)CC1(C)C` (stereo not shown) [Example 9.41, methyl 4-hydroxy-2,2-dimethyl-4-[5-(3-methyl-5-{[4-(trifluoromethyl)pyrimidin-2-yl]amino}phenyl)pyridin-2-yl]cyclohexanecarboxylate], the IC50 was in the range of 100 to 1000 nM.

Take `CCOC(=O)C1CCC(O)(c2ccc(-c3cc(C)cc(Nc4nccc(C(F)(F)F)n4)c3)cn2)CC1(C)C` (stereo not shown) [Example 9.42, ethyl 4-hydroxy-2,2-dimethyl-4-[5-(3-methyl-5-{[4-(trifluoromethyl)pyrimidin-2-yl]amino}phenyl)pyridin-2-yl]cyclohexanecarboxylate]: the IC50 is 100 to 1000 nM.

In the case of `CC1(C)CC(O)(c2ccc(-c3cccc(Nc4nccc(C(F)(F)F)n4)c3)cn2)CCC1C(=O)O` (stereo not shown) [Example 9.43, 4-hydroxy-2,2-dimethyl-4-[5-(3-{[4-(trifluoromethyl)pyrimidin-2-yl]amino}phenyl)pyridin-2-yl]cyclohexanecarboxylic acid], the IC50 was below 100 nM.

As for `CCOC(=O)C1(C)CCC(O)(c2ccc(-c3cc(C)cc(Nc4nccc(C(F)(F)F)n4)c3)cn2)CC1` (stereo not shown) [Example 9.44, ethyl 4-hydroxy-1-methyl-4-[5-(3-methyl-5-{[4-(trifluoromethyl)pyrimidin-2-yl]amino}phenyl)pyridin-2-yl]cyclohexanecarboxylate], the IC50 was 100 to 1000 nM.

On to `Cc1cc(Nc2nccc(C(F)(F)F)n2)cc(-c2ccc(C3(O)CCC(C(=O)O)C(C)(C)C3)nc2)c1` (stereo not shown) [Example 9.46, 4-hydroxy-2,2-dimethyl-4-[5-(3-methyl-5-{[4-(trifluoromethyl)pyrimidin-2-yl]amino}phenyl)pyridin-2-yl]cyclohexanecarboxylic acid], for which the IC50 is below 100 nM.

As for `CCOC(=O)C1CCC(O)(c2ccc(-c3cc(C)cc(Nc4nccc(C(F)(F)F)n4)c3)cn2)C1(C)C` (stereo not shown) [Example 9.47, ethyl 3-hydroxy-2,2-dimethyl-3-[5-(3-methyl-5-{[4-(trifluoromethyl)pyrimidin-2-yl]amino}phenyl)pyridin-2-yl]cyclopentanecarboxylate], the IC50 lay in the range of 1000 to 10000 nM.

In the case of `Cc1cc(Nc2nccc(C(F)(F)F)n2)cc(-c2ccc(C3(O)CCC(=O)CC3)nc2)c1` [Example 9.54, 4-hydroxy-4-[5-(3-methyl-5-{[4-(trifluoromethyl)pyrimidin-2-yl]amino}phenyl)pyridin-2-yl]cyclohexanone], the IC50 was below 100 nM.

Regarding `Cc1cc(Nc2nccc(C(F)(F)F)n2)cc(-c2ccc(C3(O)COC3)nc2)c1` [Example 9.55, 3-[5-(3-methyl-5-{[4-(trifluoromethyl)pyrimidin-2-yl]amino}phenyl)pyridin-2-yl]oxetan-3-ol], the IC50 is below 100 nM.

In the case of `Cc1cc(Nc2nccc(C(F)(F)F)n2)cc(-c2ccc(C(C)(O)CO)nc2)c1` (stereo not shown) [Example 9.56, 2-[5-(3-methyl-5-{[4-(trifluoromethyl)pyrimidin-2-yl]amino}phenyl)pyridin-2-yl]propane-1,2-diol], the IC50 is below 100 nM.

For the compound `Cc1cc(Nc2nccc(C(F)(F)F)n2)cc(-c2ccc(C(C)(O)CO)nc2)c1` (stereo not shown) [Example 9.57, 2-[5-(3-methyl-5-{[4-(trifluoromethyl)pyrimidin-2-yl]amino}phenyl)pyridin-2-yl]propane-1,2-diol], the IC50 is below 100 nM.

As to `Cc1cc(Nc2nccc(C(F)(F)F)n2)cc(-c2ccc([C@]3(O)CC[C@@H](O)CC3)nc2)c1` [Example 9.58, cis-1-[5-(3-methyl-5-{[4-(trifluoromethyl)pyrimidin-2-yl]amino}phenyl)pyridin-2-yl]cyclohexane-1,4-diol], the IC50 is below 100 nM.

For the compound `Cc1cc(Nc2nccc(C(F)(F)F)n2)cc(-c2ccnc(C3(O)CCC3)c2)c1` [Example 9.60, 1-[4-(3-methyl-5-{[4-(trifluoromethyl)pyrimidin-2-yl]amino}phenyl)pyridin-2-yl]cyclobutanol], the IC50 was below 100 nM.

With `Cc1cc(Nc2nccc(C(F)(F)F)n2)cc(-c2ccnc(C(C)(C)O)c2)c1` [Example 9.61, 2-[4-(3-methyl-5-{[4-(trifluoromethyl)pyrimidin-2-yl]amino}phenyl)pyridin-2-yl]propan-2-ol], the IC50 was below 100 nM.

As for `Cc1cc(Nc2nccc(C(F)(F)F)n2)cc(-c2ccnc(C3(O)COC(C)(C)OC3)c2)c1` [Example 9.62, 2,2-dimethyl-5-[4-(3-methyl-5-{[4-(trifluoromethyl)pyrimidin-2-yl]amino}phenyl)pyridin-2-yl]-1,3-dioxan-5-ol], the IC50 fell in the range of 100 to 1000 nM.

In the case of `Cc1cc(Nc2nccc(C(F)(F)F)n2)cc(-c2ccnc(C3(O)CCC4(CC3)OCCO4)c2)c1` [Example 9.63, 8-[4-(3-methyl-5-{[4-(trifluoromethyl)pyrimidin-2-yl]amino}phenyl)pyridin-2-yl]-1,4-dioxaspiro[4.5]decan-8-ol], the IC50 was below 100 nM.

`Cc1cc(Nc2nccc(C(F)(F)F)n2)cc(-c2ccnc(C(C)(O)CO)c2)c1` (stereo not shown) [Example 9.64, 2-[4-(3-methyl-5-{[4-(trifluoromethyl)pyrimidin-2-yl]amino}phenyl)pyridine-2-yl]propane-1,2-diol]: the IC50 is below 100 nM.

Turning to `Cc1cc(Nc2nccc(C(F)(F)F)n2)cc(-c2ccnc(C(O)(CO)CO)c2)c1` [Example 9.65, 2-[4-(3-methyl-5-{[4-(trifluoromethyl)pyrimidin-2-yl]amino}phenyl)pyridine-2-yl]propane-1,2,3-triol], the IC50 was below 100 nM.

As for `Cc1cc(Nc2nccc(C(F)(F)F)n2)cc(-c2cncc(C3(O)CCCC(C(=O)O)C3)c2)c1` (stereo not shown) [Example 9.66, 3-hydroxy-3-[5-(3-methyl-5-{[4-(trifluoromethyl)pyrimidin-2-yl]amino}phenyl)pyridin-3-yl]cyclohexanecarboxylic acid], the IC50 is below 100 nM.

In the case of `Cc1cc(Nc2nccc(C(F)(F)F)n2)cc(-c2cncc(C3(O)CCC(C(=O)O)C3)c2)c1` (stereo not shown) [Example 9.67, 3-hydroxy-3-[5-(3-methyl-5-{[4-(trifluoromethyl)pyrimidin-2-yl]amino}phenyl)pyridin-3-yl]cyclopentanecarboxylic acid], the IC50 was below 100 nM.

For `Cc1cc(Nc2nccc(C(F)(F)F)n2)cc(-c2cncc(C(C)(O)CO)c2)c1` (stereo not shown) [Example 9.68, 2-[5-(3-methyl-5-{[4-(trifluoromethyl)pyrimidin-2-yl]amino}phenyl)pyridin-3-yl]propane-1,2-diol], the IC50 was below 100 nM.
